Laboratory results as given in ChEMBL document CHEMBL4130350, “Discovery, mechanism and metabolism studies of 2,3-difluorophenyl-linker-containing PARP1 inhibitors with enhanced in vivo efficacy for cancer therapy” (Eur J Med Chem, 2017).
In brackets after ≈: the same amount, converted by molar mass. Activity calls are given as the source filed them. The calls are words filed in the database; no cut-off is given here.

Key:
Mus musculus [1] = experiment: Toxicity in nude BALB/cA mouse xenografted with human Capan1 cells harboring BRCA2 mutant assessed as weight loss at 40 mg/kg, po administered once daily for 21 consecutive days measured twice per week; assay type: organism-based; settings: in vivo
MDA-MB-436 [2] = experiment: Induction of apoptosis in human MDA-MB-436 cells assessed as late apoptotic cells at 1 uM after 96 hrs by Annexin V-FITC/propidium iodide double-staining based flow cytometery (reference value: 5.61%); assay type: functional
[3] = Solubility of the compound in water after 24 hrs by HPLC analysis; assay type: physicochemical
[4] = Efflux ratio of apparent permeability in human Caco2 cells after 2 hrs by LC-MS/MS analysis; assay type: ADME, cell-based; settings: Caco-2
[5] = Cmax in Sprague-Dawley rat at 5 mg/kg, iv by LC-MS/MS analysis; assay type: ADME, organism-based; set-up: dose 5 mg/kg, route intravenous; settings: in vivo
Mus musculus [6] = experiment: Toxicity in nude BALB/cA mouse xenografted with human MDA-MB-436 cells harboring BRCA1 mutant assessed as weight loss at 50 mg/kg, po administered once daily for 21 consecutive days measured twice per week; assay type: organism-based; settings: in vivo
CAPAN-1 [7] = experiment: Cell cycle arrest in human Capan1 cells assessed as accumulation at G2/M phase at 10 uM after 72 hrs by propidium iodide-staining based flow cytometry (reference value: 15.26%); assay type: functional
CAPAN-1 [8] = experiment: Effect on total chk1 protein levels in human Capan1 cells at 0.1 to 1 uM after 48 hrs by Western blot analysis; assay type: ADME, cell-based; settings: capan-1, 48 h
[9] = biological target: T1, Poly [ADP-ribose] polymerase 1 (Homo sapiens, UniProt P09874); experiment: Inhibition of PARP1 in BRCA2 deficient human Capan1 cells assessed as increase in DNA double stranded breaks by measuring gammaH2AX levels after 48 hrs by Western blot analysis
T1 sequence (P09874 whole entry): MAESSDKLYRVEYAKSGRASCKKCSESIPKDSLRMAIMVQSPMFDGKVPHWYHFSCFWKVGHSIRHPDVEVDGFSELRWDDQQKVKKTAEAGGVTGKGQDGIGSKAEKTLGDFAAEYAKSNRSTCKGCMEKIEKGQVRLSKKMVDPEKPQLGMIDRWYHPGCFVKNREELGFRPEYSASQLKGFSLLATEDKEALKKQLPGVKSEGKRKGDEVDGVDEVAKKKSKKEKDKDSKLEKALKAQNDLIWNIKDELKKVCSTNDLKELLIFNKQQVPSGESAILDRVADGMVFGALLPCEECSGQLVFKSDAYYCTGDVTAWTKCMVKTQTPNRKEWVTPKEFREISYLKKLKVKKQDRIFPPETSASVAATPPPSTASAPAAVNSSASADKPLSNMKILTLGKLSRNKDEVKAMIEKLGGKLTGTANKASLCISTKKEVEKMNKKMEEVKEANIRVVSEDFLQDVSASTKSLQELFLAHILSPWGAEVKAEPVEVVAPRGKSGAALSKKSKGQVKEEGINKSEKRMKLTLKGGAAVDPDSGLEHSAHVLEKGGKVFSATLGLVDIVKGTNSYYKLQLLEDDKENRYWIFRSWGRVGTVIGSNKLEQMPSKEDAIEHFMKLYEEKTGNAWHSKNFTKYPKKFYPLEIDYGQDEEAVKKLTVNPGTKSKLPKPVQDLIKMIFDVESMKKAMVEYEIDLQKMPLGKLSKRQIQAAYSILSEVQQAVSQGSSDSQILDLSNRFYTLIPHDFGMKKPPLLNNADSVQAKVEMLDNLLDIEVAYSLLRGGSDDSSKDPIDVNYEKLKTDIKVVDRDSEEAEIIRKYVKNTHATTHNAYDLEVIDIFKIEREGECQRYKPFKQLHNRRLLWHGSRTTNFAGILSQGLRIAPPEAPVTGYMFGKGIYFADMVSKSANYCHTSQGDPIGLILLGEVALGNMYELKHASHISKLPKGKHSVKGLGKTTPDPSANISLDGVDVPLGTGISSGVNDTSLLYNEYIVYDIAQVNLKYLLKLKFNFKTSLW

[10] = Apparent permeability across apical to basolateral side in human Caco2 cells after 2 hrs by LC-MS/MS analysis; assay type: ADME, cell-based; settings: Caco-2
Mus musculus [11] = experiment: Toxicity in nude BALB/cA mouse xenografted with human Capan1 cells harboring BRCA2 mutant assessed as mortality at 40 mg/kg, po administered once daily for 21 consecutive days measured twice per week; assay type: organism-based; settings: in vivo
MDA-MB-436 [12] = experiment: Induction of apoptosis in human MDA-MB-436 cells assessed as early apoptotic cells at 0.1 uM after 96 hrs by Annexin V-FITC/propidium iodide double-staining based flow cytometery (reference value: 1.90%); assay type: functional
[13] = Oral bioavailability in Sprague-Dawley rat at 10 mg/kg by LC-MS/MS analysis; assay type: ADME, organism-based; settings: in vivo
CAPAN-1 [14] = experiment: Effect on total ATM protein levels in human Capan1 cells at 0.1 to 1 uM after 48 hrs by Western blot analysis; assay type: ADME, cell-based; settings: capan-1, 48 h
[15] = Drug metabolism in mouse liver microsomes assessed as oxidative metabolite formation at 2 uM up to 60 mins in presence of NADPH by LC-MS/MS analysis; assay type: ADME, microsome; settings: 1 h
MDA-MB-436 [16] = experiment: Induction of apoptosis in human MDA-MB-436 cells assessed as late apoptotic cells at 1 uM after 96 hrs in presence of pancaspase inhibitor Z-VAD-FMK by Annexin V-FITC/propidium iodide double-staining based flow cytometery (reference value: 5.11%); assay type: functional
CAPAN-1 [17] = experiment: Cell cycle arrest in human Capan1 cells assessed as accumulation at G2/M phase at 1 uM after 72 hrs by propidium iodide-staining based flow cytometry (reference value: 15.26%); assay type: functional
[18] = Protein binding in mouse plasma at 0.5 to 50 uM after 4 hrs by LC-MS/MS analysis; assay type: ADME, cell-free; settings: read-out: PPB (converted)
MDA-MB-436 [19] = experiment: Induction of apoptosis in human MDA-MB-436 cells assessed as caspase-3/7 activation at 0.1 to 1 uM after 72 hrs by Caspase-Glo 3/7 assay; assay type: functional, cell-based
[20] = biological target: T1, Poly [ADP-ribose] polymerase 1; experiment: Inhibition of PARP1 in human Capan1 cells assessed as increase in phosphorylated ATM protein levels at 0.1 to 1 uM after 48 hrs by Western blot analysis; assay type: cell-based
CAPAN-1 [21] = experiment: Cell cycle arrest in human Capan1 cells assessed as accumulation at G0/G1 phase at 0.1 uM after 72 hrs by propidium iodide-staining based flow cytometry (reference value: 63.33%); assay type: functional
CAPAN-1 [22] = experiment: Cell cycle arrest in human Capan1 cells assessed as accumulation at S phase at 1 uM after 72 hrs by propidium iodide-staining based flow cytometry (reference value: 21.42%); assay type: functional
[23] = Cytotoxicity against BRCA2 deficient Chinese hamster VC8 cells after 3 days by CCK8 or SRB assay; assay type: functional, cell-based; settings: Cricetulus griseus, V-C8, 72 h
[24] = biological target: T1, Poly [ADP-ribose] polymerase 1; experiment: Inhibition of PARP1 in BRCA1 deficient human MDA-MB-436 cells assessed as increase in DNA double stranded breaks by measuring gammaH2AX levels after 72 hrs by Western blot analysis; assay type: cell-based
CAPAN-1 [25] = experiment: Cell cycle arrest in human Capan1 cells assessed as accumulation at G2/M phase at 0.1 uM after 72 hrs by propidium iodide-staining based flow cytometry (reference value: 15.26%); assay type: functional
[26] = Half life in Sprague-Dawley rat at 10 mg/kg, po by LC-MS/MS analysis; assay type: ADME, organism-based; settings: in vivo
[27] = Half life in Sprague-Dawley rat at 5 mg/kg, iv by LC-MS/MS analysis; assay type: ADME, organism-based; settings: in vivo
CAPAN-1 [28] = experiment: Antitumor activity against human Capan1 cells harboring BRCA2 mutant xenografted in nude BALB/cA mouse assessed as tumor growth inhibition at 40 mg/kg, po administered once daily for 21 consecutive days measured twice per week; assay type: functional; settings: CAPAN-1, po, read-out: TGI
MDA-MB-436 [29] = experiment: Induction of apoptosis in human MDA-MB-436 cells assessed as early apoptotic cells at 0.1 uM after 96 hrs in presence of pancaspase inhibitor Z-VAD-FMK by Annexin V-FITC/propidium iodide double-staining based flow cytometery (reference value: 2.32%); assay type: functional
[30] = AUC in Sprague-Dawley rat at 10 mg/kg, po by LC-MS/MS analysis; assay type: ADME, organism-based; settings: in vivo
MDA-MB-436 [31] = experiment: Antiproliferative activity against human MDA-MB-436 cells after 7 days by CCK8 or SRB assay; assay type: functional, cell-based; settings: MDA-MB-436, 168 h
Mus musculus [32] = experiment: Toxicity in nude BALB/cA mouse xenografted with human MDA-MB-436 cells harboring BRCA1 mutant assessed as mortality at 50 mg/kg, po administered once daily for 21 consecutive days measured twice per week; assay type: organism-based; settings: in vivo
[33] = biological target: T1, Poly [ADP-ribose] polymerase 1; experiment: Inhibition of PARP1 in human Capan1 cells assessed as increase in formation of phosphorylated ATM foci in cells at 10 uM after 48 hrs by confocal microscopy; assay type: cell-based
CAPAN-1 [34] = experiment: Cell cycle arrest in human Capan1 cells after 72 hrs by propidium iodide-staining based flow cytometry; assay type: functional
[35] = Clearance in Sprague-Dawley rat at 5 mg/kg, iv by LC-MS/MS analysis; assay type: ADME, organism-based; settings: in vivo
MDA-MB-436 [36] = experiment: Induction of apoptosis in human MDA-MB-436 cells after 96 hrs by Annexin V-FITC/propidium iodide double-staining based flow cytometery; assay type: functional, cell-based
[37] = biological target: T1, Poly [ADP-ribose] polymerase 1; experiment: Inhibition of PARP1 in human Capan1 cells assessed as increase in phosphorylated chk1 protein levels at 0.1 to 1 uM after 48 hrs by Western blot analysis; assay type: cell-based
MDA-MB-436 [38] = experiment: Induction of apoptosis in human MDA-MB-436 cells assessed as late apoptotic cells at 0.1 uM after 96 hrs in presence of pancaspase inhibitor Z-VAD-FMK by Annexin V-FITC/propidium iodide double-staining based flow cytometery (reference value: 5.11%); assay type: functional

For `N#Cc1cccnc1N1CCN(C(=O)c2cc(Cc3n[nH]c(=O)c4ccccc34)cc(F)c2F)CC1`, the Activity (Mus musculus [1]) was “Non-Toxic”, the Activity (MDA-MB-436 [2]) was 32.34% and the solubility at 24 h [3] was 1.1 µg/mL (≈ 2.26 µM). For the same molecule, the efflux ratio at 2 h [4] was 5, the Cmax [5] was 3260 ng/mL and the Activity (Mus musculus [6]) was “Non-Toxic”. For the same molecule, the Activity (CAPAN-1 [7]) was 72.45%, the Activity (CAPAN-1 [8]) was “Non-Toxic” and the inhibition [9] was “Dose-dependent effect”. For the same molecule, the Papp A→B at 2 h [10] was 6.8 ×10⁻⁶ cm/s, the Activity (Mus musculus [11]) was “Non-Toxic” and the Activity (MDA-MB-436 [12]) was 5.36%. The bioavailability [13] was 4.7%, the Activity (CAPAN-1 [14]) was “Non-Toxic” and the Drug metabolism [15] was “Metabolite_Detected”. For the same molecule, the Activity (MDA-MB-436 [16]) was 18.6%, the Activity (CAPAN-1 [17]) was 49.95% and the fraction unbound at 4 h, up to 50 µM [18] was 0.012. For the same molecule, the Activity (MDA-MB-436 [19]) was “Active”, the inhibition [20] was “Active” and the Activity (CAPAN-1 [21]) was 55.92%. For the same molecule, the Activity (CAPAN-1 [22]) was 27.67%, the IC50 [23] was 3 pM and the inhibition [24] was “Dose-dependent effect”. It also gave an Activity (CAPAN-1 [25]) of 17.33%, a half-life [26] of 3 h and a half-life [27] of 5.3 h. For the same molecule, the inhibition in vivo at 40 mg/kg (CAPAN-1 [28]) was 48.1%, the Activity (MDA-MB-436 [29]) was 6.48% and the AUC [30] was 130 ng·h/mL. For the same molecule, the IC50 (MDA-MB-436 [31]) was 200 pM, the Activity (Mus musculus [32]) was “Non-Toxic” and the inhibition [33] was “Active”. For the same molecule, the Activity (CAPAN-1 [34]) was “Dose-dependent effect”, the clearance [35] was 60 mL/min/kg and the Activity (MDA-MB-436 [36]) was “Dose-dependent effect”. For the same molecule, the inhibition [37] was “Active” and the Activity (MDA-MB-436 [38]) was 17.99%.
